Where two headings read alike, the source gives them in different places.
Assays:
astrocytes = assay: WST-1 viability under AAPH-induced oxidative stress, astrocytes; format: cell-based, human; details: for astrocyte viability under AAPH: ½ × TPC (benperidol 5 μg/L, bromperidol 12.5 μg/L), AAPH 15 mmol/L
Experimental: (§1) WST-1 assay (Takara, Takara Bio Europe, Saint-Germain-en-Laye, France) was used to assess the effects of antipsychotics on the growth of HUVEC and astrocytes. The experiments were conducted as described previously. HUVEC were seeded at a density of 7500 cells, and astrocytes at 5000 cells per well on 96-well microplates and cultured for 24 h followed by treatment with compounds at ½ × TPCmax and TPCmax or pure medium as a control (v = 100 μL) for another 24 h (37 °C, 5% CO2). Subsequently, the cells were washed with culture medium (100 μL) and WST-1 reagent diluted in medium (10 μL of reagent + 90 μL of medium) was added. The plates were incubated at 37 °C in 5% CO2 for another 90 min for HUVEC and 60 min for astrocytes. The absorbance was read at 450 nm using a microplate reader (iMARK, Bio-Rad, Hercules, CA, USA). The cells viability was expressed as a percentage of the control samples which constituted 100% viability.
(§2) Moreover, the WST-1 assay was used to evaluate potential protective effects of antipsychotics on the growth of HUVEC and astrocytes under conditions of AAPH-induced oxidative stress. The experimental conditions were the same as in viability studies. AA at the final concentration of 10 μg/mL was used as an antioxidant control. After reaching the confluence, the antipsychotics were added at concentrations equaling ½ × TPCmax and TPCmax. After 1 h incubation under standard conditions, 50 μL AAPH was added to the wells containing tested compounds or AA. The AAPH concentration was chosen on the basis of preliminary experiments—17.5 mmol/L in HUVEC experiments, and 15.0 mmol/L in the case of astrocytes.

[1] = biological target: T1, human erythrocyte acetylcholinesterase (Homo sapiens, UniProt P22303); assay: AChE inhibition, modified Ellman's method; format: biochemical
T1 construct: solution of hemolyzed erythrocytes diluted 400-fold; from tissue; host or cells: hemolyzed erythrocytes from blood of healthy human donors
Experimental: (§3) The activity of both cholinesterases (AChE and BuChE) were assessed spectrophotometrically according to the Ellman’s method with some modifications by Worek et al.. This test development included experimental determination of the optimal testing conditions. For all measurements, 37 °C was used as the best temperature for enzymatic determinations in material of human origin.
(§4) The solution of plasma 200-fold diluted with 0.9% NaCl and solution of hemolyzed erythrocytes diluted 400-fold with 0.9% were incubated (37 °C, 15 min) with 5 μL DTNB (0.01 mol/L) and 10 μL tested compound at a wider range of concentration than the therapeutic range in order to assess the overall effect of the compound on human esterases (AChE and BuChE). The controls without antipsychotics, containing only DTNB and diluted plasma or diluted solution of hemolyzed erythrocytes, were prepared. […] The final volume of a sample was 500 μL. […] The maximal velocity of the reaction was determined on the basis of changes in absorbance over time.
(§5) AChE SI (selectivity index) was calculated by using the following formula: SI = IC50 of BuChE/IC50 of AChE. However, BuChE SI was defined as IC50 of AChE/IC50 of BuChE. Maximal velocity (Vmax) and the Michaelis constant (Km) were calculated with the use of linear regression—according to the Hanes–Woolf plot.

HUVEC cells = assay: WST-1 viability under AAPH-induced oxidative stress, HUVEC; format: cell-based, human; details: AAPH 17.5 mmol/L, relative to pure medium control
Experimental: as §1, §2

BuChE [2] = biological target: BuChE (Homo sapiens, UniProt P06276); assay: Synergism of antipsychotics with donepezil/rivastigmine (binary mixtures), BuChE; details: ComboSyn;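 note: combination index derived by median-effect analysis of combined drug effects on the cholinesterase, with values below 1 meaning synergism, exactly 1 additivity and above 1 antagonism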
AChE = AChE (Homo sapiens, UniProt P22303); assay: Synergism of antipsychotics with donepezil/rivastigmine (binary mixtures), AChE; details: ComboSyn;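 note: antipsychotic concentration kept fixed across all measurements, selected from estimated therapeutic plasma levels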
[3] = biological target: T2, human plasma butyrylcholinesterase (Homo sapiens, UniProt P06276); assay: BuChE inhibition, modified Ellman's method; format: biochemical
T2 construct: The solution of plasma 200-fold diluted with 0.9% NaCl; from tissue; host or cells: citrated plasma from blood of healthy human donors
Experimental: as §3, §4, §5

[4] = biological target: T3, recombinant human β-amyloid (1–42) (Homo sapiens, UniProt P05067); assay: Beta-amyloid aggregation, Thioflavin T fluorescence; format: biochemical
T3 construct: recombinant human β-amyloid (1–42; ultrapure); purchased Sigma-Aldrich (St. Louis, MO, USA)
Experimental: Aβ42 peptide was dissolved in DMSO and left to hydrate for a few minutes. The solution was centrifuged at 10,000 rpm for 5 min at 4 °C to separate any precipitated material. The solution at a concentration of 220 μmol/L was stored in small aliquots at a temperature of −30 °C and before each experiment it was restored at 37 °C for 15 min. Test samples containing Aβ42 solution at the final concentration of 20 μmol/L was incubated with antipsychotics at concentrations equaling their TPC and 1/2 × TPC (v = 10 µL). The final volume of the test samples was 100 μL. The positive control constituted a sample of Aβ42 peptide, whereas the negative control contained tannic acid at the final concentrations of 0.1 µmol/L and 10 µmol/L. The fibrillation reaction was set up by addition of thioflavin ThT dye at a concentration of 5 µmol/L. The fluorescence intensity was measured at room temperature with Ex/Em = 440 nm/484 nm (Synergy H1; BioTek, Winooski, VT, USA). The measurements of fluorescence intensity expressed as relative fluorescence units (RFU) were taken at 10, 30, 60 and 90 min and then after 24 and 48 h. The fluorescence intensity measured for control equaled 100% of Aβ aggregation and it was used to estimate the inhibitory properties of the tested antipsychotics.

BuChE [5] = details: read-out: IC50 BuChE, cited from earlier work
[6] = ½ × TPC (bromperidol 12.5 μg/L, quetiapine 200 μg/L)
[7] = donepezil 2 μmol/L + antipsychotic at TPCmax
[8] = donepezil 5 μmol/L + antipsychotic at TPCmax
[9] = donepezil 10 μmol/L + antipsychotic at TPCmax
[10] = donepezil 20 μmol/L + antipsychotic at TPCmax
[11] = donepezil 100 μmol/L + antipsychotic at TPCmax
[12] = rivastigmine 0.05 μmol/L + antipsychotic at TPCmax
[13] = rivastigmine 0.1 μmol/L + antipsychotic at TPCmax
[14] = rivastigmine 0.25 μmol/L + antipsychotic at TPCmax
[15] = rivastigmine 0.5 μmol/L + antipsychotic at TPCmax
[16] = rivastigmine 0.75 μmol/L + antipsychotic at TPCmax
[17] = rivastigmine 1 μmol/L + antipsychotic at TPCmax
[18] = rivastigmine 2.5 μmol/L + antipsychotic at TPCmax
[19] = rivastigmine 5 μmol/L + antipsychotic at TPCmax
[20] = donepezil 0.005 μmol/L + antipsychotic at TPCmax, CI < 1 synergism, > 1 antagonism
[21] = donepezil 0.01 μmol/L + antipsychotic at TPCmax
[22] = donepezil 0.02 μmol/L + antipsychotic at TPCmax
[23] = donepezil 0.05 μmol/L + antipsychotic at TPCmax
[24] = donepezil 0.1 μmol/L + antipsychotic at TPCmax
[25] = rivastigmine 10 μmol/L + antipsychotic at TPCmax
[26] = rivastigmine 15 μmol/L + antipsychotic at TPCmax
[27] = rivastigmine 25 μmol/L + antipsychotic at TPCmax
[28] = rivastigmine 40 μmol/L + antipsychotic at TPCmax
[29] = rivastigmine 50 μmol/L + antipsychotic at TPCmax
[30] = rivastigmine 75 μmol/L + antipsychotic at TPCmax
[31] = rivastigmine 100 μmol/L + antipsychotic at TPCmax

BuChE, sequence (P06276 29-602): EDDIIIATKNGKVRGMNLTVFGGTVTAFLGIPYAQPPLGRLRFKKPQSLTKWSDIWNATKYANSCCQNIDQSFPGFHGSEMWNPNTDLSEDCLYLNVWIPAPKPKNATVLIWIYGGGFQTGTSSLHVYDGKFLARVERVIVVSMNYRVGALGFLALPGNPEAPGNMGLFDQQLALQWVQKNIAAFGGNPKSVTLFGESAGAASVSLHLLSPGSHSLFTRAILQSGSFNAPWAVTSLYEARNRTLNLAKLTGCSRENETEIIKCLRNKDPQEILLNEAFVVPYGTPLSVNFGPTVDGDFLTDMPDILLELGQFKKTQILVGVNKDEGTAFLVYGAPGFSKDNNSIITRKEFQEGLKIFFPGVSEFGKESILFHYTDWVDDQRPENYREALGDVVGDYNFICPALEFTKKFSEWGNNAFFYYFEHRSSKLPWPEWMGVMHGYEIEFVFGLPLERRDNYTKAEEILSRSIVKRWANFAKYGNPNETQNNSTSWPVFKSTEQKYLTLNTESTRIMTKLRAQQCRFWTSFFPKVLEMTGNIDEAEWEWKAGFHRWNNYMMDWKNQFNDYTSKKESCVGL
T2 sequence (P06276 29-602): as above
T1 sequence (P22303 32-617 isoform P22303-2 limits assumed): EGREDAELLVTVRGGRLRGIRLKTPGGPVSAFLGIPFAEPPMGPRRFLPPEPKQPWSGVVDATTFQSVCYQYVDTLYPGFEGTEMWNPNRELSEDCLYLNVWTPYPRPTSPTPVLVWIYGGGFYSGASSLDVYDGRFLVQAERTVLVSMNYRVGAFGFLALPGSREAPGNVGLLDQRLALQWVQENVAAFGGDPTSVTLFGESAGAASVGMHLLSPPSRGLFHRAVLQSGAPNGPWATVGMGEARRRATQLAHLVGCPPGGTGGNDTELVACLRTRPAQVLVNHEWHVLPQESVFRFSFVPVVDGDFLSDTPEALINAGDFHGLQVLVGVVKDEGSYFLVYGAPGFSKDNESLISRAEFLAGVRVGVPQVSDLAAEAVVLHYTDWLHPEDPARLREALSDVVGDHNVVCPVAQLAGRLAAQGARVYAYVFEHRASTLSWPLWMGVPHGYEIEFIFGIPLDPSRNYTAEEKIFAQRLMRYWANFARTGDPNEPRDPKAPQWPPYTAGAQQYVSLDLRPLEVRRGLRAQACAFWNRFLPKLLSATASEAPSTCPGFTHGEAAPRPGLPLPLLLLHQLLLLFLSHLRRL
AChE, sequence (P22303 32-617 isoform P22303-2 limits assumed): as above
T3 sequence (P05067 672-713 limits assumed): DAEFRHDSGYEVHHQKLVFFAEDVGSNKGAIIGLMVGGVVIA

Compound | astrocyte viability under AAPH (astrocytes) [%] | viability of HUVEC under AAPH (HUVEC cells; [6]) [%] | CI (combination index), BuChE (BuChE [2]; [7]) | CI (combination index), BuChE (BuChE [2]; [8]) | CI (combination index), BuChE (BuChE [2]; [9]) | CI (combination index), BuChE (BuChE [2]; [10]) | CI (combination index), BuChE (BuChE [2]; [11]) | CI (combination index), BuChE (BuChE [2]; [12]) | CI (combination index), BuChE (BuChE [2]; [13]) | CI (combination index), BuChE (BuChE [2]; [14]) | CI (combination index), BuChE (BuChE [2]; [15]) | CI (combination index), BuChE (BuChE [2]; [16]) | CI (combination index), BuChE (BuChE [2]; [17]) | CI (combination index), BuChE (BuChE [2]; [18]) | CI (combination index), BuChE (BuChE [2]; [19]) | CI (combination index), AChE (AChE; [20]) | CI (combination index), AChE (AChE; [21]) | CI (combination index), AChE (AChE; [22]) | CI (combination index), AChE (AChE; [23]) | CI (combination index), AChE (AChE; [24]) | other results
O=C(CCCN1CCC(n2c(O)nc3ccccc32)CC1)c1ccc(F)cc1 [Benperidol, benperidol] | 81.9 | 82.9 | 0.40 | 0.50 | 0.57 | 0.60 | 0.84 | 0.27 | 0.32 | 0.56 | 0.91 | 0.95 | 1.00 | 1.08 | 1.00 | 0.83 | 1.09 | 1.04 | 1.02 | 1.24 | astrocyte viability compared with the control (pure AAPH) (astrocytes; benperidol 5 and 10 μg/L, penfluridol 12.5 μg/L, pimozide 15 μg/L, promazine 25 and 50 μg/L): statistically significant increase; AChE reaction velocity ([1]; 75 µg/L, control 0.258 ± 0.016 A/min): 0.250 ± 0.015 A/min; AChE reaction velocity ([1]; 100 µg/L, control 0.258 ± 0.016 A/min): 0.239 ± 0.014 A/min; CI (combination index), BuChE (BuChE [2]; donepezil 50 μmol/L + antipsychotic at TPCmax): 0.69; CI (combination index), AChE (AChE; [19]): 0.31; CI (combination index), AChE (AChE; [25]): 0.44; CI (combination index), AChE (AChE; [26]): 0.48; CI (combination index), AChE (AChE; [27]): 0.57; CI (combination index), AChE (AChE; [28]): 0.62; CI (combination index), AChE (AChE; [29]): 0.63; CI (combination index), AChE (AChE; [30]): 0.66; CI (combination index), AChE (AChE; [31]): 0.65; BuChE reaction velocity ([3]; 75 µg/L, control 0.302 ± 0.029 A/min): 0.283 ± 0.029 A/min; BuChE reaction velocity ([3]; 100 µg/L, control 0.302 ± 0.029 A/min): 0.279 ± 0.021 A/min; inhibition of Aβ ([4]; 10 μg/L, time range from 10 min to 24 h incubation): 42.1–53.3%
O=C(CCCN1CCC(O)(c2ccc(Br)cc2)CC1)c1ccc(F)cc1 [Bromperidol, bromperidol] | 68.9 | 66.8 | 0.43 | 0.52 | 0.57 | 0.70 | 0.89 | 0.18 | 0.30 | 0.57 | 0.74 | 0.86 | 0.92 | 0.96 | 0.96 | 0.07 | 0.78 | 0.81 | 0.81 | 0.80 | AChE reaction velocity ([1]; 200 µg/L, control 0.236 ± 0.032 A/min): 0.228 ± 0.029 A/min; viability of HUVEC under AAPH (HUVEC cells; TPC (bromperidol 25 μg/L, quetiapine 400 μg/L)): 82.5%; CI (combination index), AChE (AChE; [19]): 0.32; CI (combination index), AChE (AChE; [25]): 0.38; CI (combination index), AChE (AChE; [26]): 0.46; CI (combination index), AChE (AChE; [27]): 0.50; CI (combination index), AChE (AChE; [28]): 0.53; CI (combination index), AChE (AChE; [29]): 0.49; CI (combination index), AChE (AChE; [30]): 0.55; CI (combination index), AChE (AChE; [31]): 0.60; BuChE reaction velocity ([3]; 200 µg/L, control 0.349 ± 0.013 A/min): 0.230 ± 0.023 A/min; percentage value of Aβ inhibition ([4]; 12.5 μg/L, 48 h, compared with the control (100% Aβ aggregation)): 51.2%; effect on Aβ aggregation after a longer incubation time ([4]; 24 and 48 h, both tested concentrations): substantially inhibit

From publication PMC9102502, “The Influence of Selected Antipsychotic Drugs on Biochemical Aspects of Alzheimer’s Disease” (International Journal of Molecular Sciences, 2022)
